Laboratory results: patent US5019576A, “2-substituted N,N'-ditrimethoxybenzoyl piperazines and therapeutic compositions containing them” (Societe de Conseils de Recherches et d'Applications …, priority 1989, dated 1991)

Experiments:
[1] = tested on: platelet aggregation induced by 2.5 nm of PAF; assay: Inhibition of PAF-induced platelet aggregation on platelet rich plasma (Born method); format: cell-based, New Zealand rabbits; conditions: Oryctolagus cuniculus; rabbit platelet rich plasma, 2.5 nm PAF
Procedure: 1. --Inhibition of the platelets aggregation on New Zealand Rabbits
The experimentation was conducted on platelets with plasma of New Zealand rabbits.
Blood samples were taken from auricular artery and placed in a citrate buffer (3.8%; pH 7.4); blood was further centrifugated for 15 mn at 1200 rpm.
The tested sample was prepared in DMSO, then poured on platelets rich plasma for 1 mn, then a dose of 2.5 nm of PAF was added.
The determination is made on a Cronolog Coultronics apparatus which determines the transmission percentage corresponding to the maximum height of the peak before the desaggregation.
The percentage of variation of the inhibition with respect to the transmission percentage is calculated (control: pure DMSO).
This method was described in detail in LABORATORY INVESTIGATIONS, Vol. 41, No. 3, p. 275, 1979, JEAN-PIERRE CAZENAVE, Dr. MED., JACQUES BENVENISTE, DR. MED., AND J. FRASER MUSTARD, M. D., "Aggregation of rabbits platelets by platelet-activating factor is independent of the release reaction and the arachidonate pathway and inhibited by membrane-active drugs".

PAF receptors = biological target: T1, PAF receptors (Oryctolagus cuniculus, UniProt G1TEI7); assay: Binding studies on a rabbit platelet homogenate (3[H]-PAF)
T1 construct: from tissue; host or cells: rabbit platelet homogenate
T1 sequence (G1TEI7 1-342): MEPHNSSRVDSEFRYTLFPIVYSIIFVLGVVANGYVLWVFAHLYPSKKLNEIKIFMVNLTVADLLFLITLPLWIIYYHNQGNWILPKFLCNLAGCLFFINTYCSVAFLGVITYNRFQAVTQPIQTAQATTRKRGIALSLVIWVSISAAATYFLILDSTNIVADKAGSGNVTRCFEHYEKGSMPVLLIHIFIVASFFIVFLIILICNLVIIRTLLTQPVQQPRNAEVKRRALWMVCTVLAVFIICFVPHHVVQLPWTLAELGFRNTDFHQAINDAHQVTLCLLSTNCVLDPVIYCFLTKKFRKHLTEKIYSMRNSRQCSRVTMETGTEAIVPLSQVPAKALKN
Description: This activity was evidenced by binding studies on a rabbit platelet homogenate. In this preparation indeed, those derivatives inhibit the specific bond of ^3 [H]--PAF, whereas they are without significative effect on the binding of the appropriate ligands on tissue homogenates rich in benzodiazepinic (central and peripheral), histaminergic (H1 and H2) and adrenergic (α1, α2, β2, β3) receptors, to angiotensine II or to ANF. Their affinity is therefore characteristic of PAF receptors.

SMILES | IC50 [1] [µM] | IC50 (PAF receptors) [µM]
COc1cc(C(=O)N2CCN(C(=O)c3cc(OC)c(OC)c(OC)c3)C(CCC(C)(C)C)C2)cc(OC)c1OC (centres unmarked) [Example 2, N,N'-bis-(3',4',5'-trimethoxybenzoyl) 2-(3",3"-dimethyl) -butyl piperazine] | 0.71 | 0.25
COc1cc(C(=O)N2CCN(C(=O)c3cc(OC)c(OC)c(OC)c3)C(C)C2)cc(OC)c1OC (centres unmarked) [Example 3, N,N'-bis-(3',4',5'-trimethoxybenzoyl) 2-methyl piperazine] | 0.56 | 0.67
CCCCCCCCCCCCCCCC1CN(C(=O)c2cc(OC)c(OC)c(OC)c2)CCN1C(=O)c1cc(OC)c(OC)c(OC)c1 (centres unmarked) [Example 5, N,N'-bis-(3',4',5'-trimethoxybenzoyl) 2-n-pentadecyl piperazine] | 5.8 | 6.3
CCCCCCCCCCCCCCCCCCCC1CN(C(=O)c2cc(OC)c(OC)c(OC)c2)CCN1C(=O)c1cc(OC)c(OC)c(OC)c1 (centres unmarked) [Example 6, N,N'-bis-(3',4',5'-trimethoxybenzoyl) 2-n-nonadecyl piperazine] | 2.4 | 4.7
COc1cc(C(=O)N2CCN(C(=O)c3cc(OC)c(OC)c(OC)c3)C(CCC3CCCCC3)C2)cc(OC)c1OC (centres unmarked) [Example 7, N,N'-bis-(3',4',5'-trimethoxybenzoyl)-2-n-(cyclohexylethyl) piperazine] | 0.43 | 0.74
COc1cc(C(=O)N2CCN(C(=O)c3cc(OC)c(OC)c(OC)c3)C(Cc3ccccc3)C2)cc(OC)c1OC (centres unmarked) [Example 9, N,N'-bis-(3',4',5'-trimethoxybenzoyl)-2-n-(benzyl) piperazine] | 0.41 | 0.73
COc1cc(C(=O)N2CCN(C(=O)c3cc(OC)c(OC)c(OC)c3)C(CCc3ccccc3)C2)cc(OC)c1OC (centres unmarked) [Example 10, N,N'-bis-(3',4',5'-trimethoxybenzoyl)-2-n-(phenethyl) piperazine] | 5.4 | 4.1
COc1cc(C(=O)N2CCN(C(=O)c3cc(OC)c(OC)c(OC)c3)C(CCCc3ccc(C)cc3)C2)cc(OC)c1OC (centres unmarked) [Example 13, N,N'-bis-(3',4',5'-trimethoxybenzoyl)-2-n-(p-(methyl)phenylpropyl) piperazine] | 0.35 | 0.14
COc1cc(C(=O)N2CCN(C(=O)c3cc(OC)c(OC)c(OC)c3)C(CCc3cccc(Cl)c3Cl)C2)cc(OC)c1OC (centres unmarked) [Example 15, N,N'-bis-(3',4',5,-trimethoxybenzoyl)-2-n-(2,3-(dichloro)phenethyl) piperazine] | 0.37 | 0.68

These reach a lower IC50 [1]. Values come first.

IC50 [1] [µM] | IC50 (PAF receptors) [µM] | SMILES
0.12 | 0.062 | CCCCCCCCC1CN(C(=O)c2cc(OC)c(OC)c(OC)c2)CCN1C(=O)c1cc(OC)c(OC)c(OC)c1 (centres unmarked) [Example 1, N,N'-bis-(3',4',5'-trimethoxybenzoyl)-2-n-octyl piperazine]
0.19 | 0.032 | CCCCCC1CN(C(=O)c2cc(OC)c(OC)c(OC)c2)CCN1C(=O)c1cc(OC)c(OC)c(OC)c1 (centres unmarked) [Example 4, N,N'-bis-(3',4',5'-trimethoxybenzoyl) 2-n-pentyl piperazine]
0.071 | 0.038 | COc1cc(CCC2CN(C(=O)c3cc(OC)c(OC)c(OC)c3)CCN2C(=O)c2cc(OC)c(OC)c(OC)c2)cc(OC)c1OC (centres unmarked) [Example 8, N,N'-bis-(3',4',5'-trimethoxybenzoyl)-2-n-(3,4,5-(trimethoxy)phenethyl) piperazine]
0.011 | 0.031 | COc1cc(C(=O)N2CCN(C(=O)c3cc(OC)c(OC)c(OC)c3)C(CCCc3ccccc3)C2)cc(OC)c1OC (centres unmarked) [Example 11, N,N'-bis-(3',4',5'-trimethoxybenzoyl)-2-n-(phenyl-n-propyl) piperazine]
0.062 | 0.06 | COc1ccc(CCC2CN(C(=O)c3cc(OC)c(OC)c(OC)c3)CCN2C(=O)c2cc(OC)c(OC)c(OC)c2)cc1 (centres unmarked) [Example 12, N,N'-bis-(3',4',5'-trimethoxybenzoyl)-2-n-(p-(methoxy)phenethyl) piperazine]
0.17 | 0.45 | COc1cc(C(=O)N2CCN(C(=O)c3cc(OC)c(OC)c(OC)c3)C(CCc3ccc(Cl)cc3)C2)cc(OC)c1OC (centres unmarked) [Example 14, N,N'-bis-(3',4',5'-trimethoxybenzoyl)-2-n-(p-(chloro)phenethyl) piperazine]
0.29 | 0.53 | C=CCc1ccc(CCC2CN(C(=O)c3cc(OC)c(OC)c(OC)c3)CCN2C(=O)c2cc(OC)c(OC)c(OC)c2)cc1 (centres unmarked) [Example 16, N,N'-bis-(3',4',5'-trimethoxybenzoyl)-2-n-(p-(allyl)phenethyl) piperazine]
